Starred links: 1 amine or outer side, 2 acyl side, 3 side chain; linkers in the order of their positions; H or OH if unused. Non-standard residues stand in square brackets, D forms with d. Residues, ends and D or L forms follow the SMILES beside them. Groups on a side chain read outwards from the residue. *: point of attachment. C20 diacid = O=C(O)CCCCCCCCCCCCCCCCCCC(=O)*; C18 diacid = O=C(O)CCCCCCCCCCCCCCCCC(=O)*; γGlu = O=C(O)[C@H](CCC(=O)[*:2])N[*:1]; αMeF = C[C@](N)(Cc1ccccc1)C(=O)O; AEEA = NCCOCCOCC(=O)O; Aib = CC(C)(N)C(=O)O
Key:
[1] = molecular target: human glucagon receptor (hGCGR) (Homo sapiens, UniProt P47871); assay: cAMP production (HTRF) in CHO cells expressing hGCGR; type: cell-based; set-up: expressed in transfected cells; settings: Table 7, peptides modified at position 20; cAMP in CHO hGCGR cells; geometric mean; read-out: hGluc-R EC50
Method in brief: (§1)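 Read-out: HTRF cAMP (anti-cAMP cryptate donor, cAMP-d2 acceptor in conjugate/lysis buffer), converted to % Delta F and fitted by 4-parameter logistic for EC50. Cell densities were 1×10^5 cells/mL (hGLP-1R) or 2×10^5 cells/mL (hGCGR). Stimulation lasted 30 min at room temperature.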

[2] = molecular target: human GLP-1 receptor (hGLP-1R) (Homo sapiens, UniProt P43220); assay: cAMP production (HTRF) in CHO cells expressing hGLP-1R; type: cell-based; set-up: expressed in transfected cells; settings: for EC50: Table 7, peptides modified at position 20, cAMP in CHO hGLP-1R cells, geometric mean, read-out: hGLP-1R EC50; for % Relative Potency Ratio: Table 7, % GLP-1R activity relative to GLP-1 / % GlucR activity relative to glucagon
Method in brief: as §1

Sequence of human GLP-1 receptor (hGLP-1R) (P43220 24-463): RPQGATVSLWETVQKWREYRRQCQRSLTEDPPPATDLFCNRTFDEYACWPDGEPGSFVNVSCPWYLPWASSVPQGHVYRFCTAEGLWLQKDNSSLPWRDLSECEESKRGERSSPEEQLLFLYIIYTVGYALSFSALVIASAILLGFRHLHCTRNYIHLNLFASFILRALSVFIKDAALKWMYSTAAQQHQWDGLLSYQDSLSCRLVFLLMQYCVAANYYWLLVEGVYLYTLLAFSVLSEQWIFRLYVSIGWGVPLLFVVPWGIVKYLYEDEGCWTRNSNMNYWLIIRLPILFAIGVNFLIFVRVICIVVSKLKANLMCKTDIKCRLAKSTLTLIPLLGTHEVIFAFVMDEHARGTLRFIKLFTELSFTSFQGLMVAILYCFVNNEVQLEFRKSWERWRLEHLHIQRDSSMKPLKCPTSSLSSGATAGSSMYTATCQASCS
Sequence of human glucagon receptor (hGCGR) (P47871 26-477): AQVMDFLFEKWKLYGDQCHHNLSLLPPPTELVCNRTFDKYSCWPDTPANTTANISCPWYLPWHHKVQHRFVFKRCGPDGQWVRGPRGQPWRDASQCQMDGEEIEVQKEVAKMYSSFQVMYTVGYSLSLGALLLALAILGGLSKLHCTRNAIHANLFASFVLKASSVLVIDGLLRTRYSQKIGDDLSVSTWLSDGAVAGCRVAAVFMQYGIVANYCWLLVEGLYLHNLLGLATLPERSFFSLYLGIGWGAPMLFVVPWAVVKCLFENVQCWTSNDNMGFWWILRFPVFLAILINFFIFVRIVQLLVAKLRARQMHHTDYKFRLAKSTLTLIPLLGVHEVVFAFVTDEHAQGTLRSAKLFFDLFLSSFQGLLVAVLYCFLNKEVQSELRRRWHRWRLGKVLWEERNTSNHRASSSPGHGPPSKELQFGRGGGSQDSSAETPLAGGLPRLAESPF

| Structure (SMILES) | EC50 [1] [nM] | EC50 [2] [nM] | % Relative Potency Ratio [2] |
| --- | --- | --- | --- |
| CC[C@H](C)[C@H](NC(=O)C(C)(C)NC(=O)[C@H](CCC(N)=O)NC(=O)[C@@H](NC(=O)[C@](C)(Cc1ccccc1)NC(=O)[C@H](CC(=O)O)NC(=O)[C@H](CCCCNC(=O)COCCOCCNC(=O)COCCOCCNC(=O)CC[C@H](NC(=O)CCCCCCCCCCCCCCCCC(=O)O)C(=O)O)NC(=O)[C@H](C)NC(=O)[C@H](C)NC(=O)[C@H](CCCNC(=N)N)NC(=O)[C@H](CO)NC(=O)[C@H](CC(=O)O)NC(=O)[C@H](CC(C)C)NC(=O)[C@](C)(Cc1ccccc1)NC(=O)[C@H](CCCNC(=N)N)NC(=O)[C@H](CO)NC(=O)[C@@H](NC(=O)[C@H](CC(=O)O)NC(=O)[C@H](CO)NC(=O)[C@@H](NC(=O)[C@](C)(Cc1ccccc1)NC(=O)[C@H](CO)NC(=O)CNC(=O)[C@H](Cc1c[nH]cn1)NC(=O)C(C)(C)NC(=O)[C@@H](N)Cc1c[nH]cn1)[C@@H](C)O)C(C)C)C(C)C)C(=O)N[C@@H](C)C(=O)N[C@@H](CC(N)=O)C(=O)N[C@H](C(N)=O)[C@@H](C)O [Peptide 297] (H-H[Aib]HGS[αMeF]TSDVSR[αMeF]LDSRAAK([AEEA-AEEA-γGlu-C18 diacid])D[αMeF]VQ[Aib]IANT-NH2) | 0.104 | 0.0304 | 6.8 |
| CC[C@H](C)[C@H](NC(=O)C(C)(C)NC(=O)[C@H](CCC(N)=O)NC(=O)[C@@H](NC(=O)[C@](C)(Cc1ccccc1)NC(=O)[C@H](CC(=O)O)NC(=O)[C@H](CCCCNC(=O)COCCOCCNC(=O)COCCOCCNC(=O)CC[C@H](NC(=O)CC[C@H](NC(=O)CCCCCCCCCCCCCCCCCCC(=O)O)C(=O)O)C(=O)O)NC(=O)[C@H](C)NC(=O)[C@H](C)NC(=O)[C@H](CCCNC(=N)N)NC(=O)[C@H](CO)NC(=O)[C@H](CC(=O)O)NC(=O)[C@H](CC(C)C)NC(=O)[C@](C)(Cc1ccccc1)NC(=O)[C@H](CCCNC(=N)N)NC(=O)[C@H](CO)NC(=O)[C@@H](NC(=O)[C@H](CC(=O)O)NC(=O)[C@H](CO)NC(=O)[C@@H](NC(=O)[C@](C)(Cc1ccccc1)NC(=O)[C@H](CO)NC(=O)CNC(=O)[C@H](Cc1c[nH]cn1)NC(=O)C(C)(C)NC(=O)[C@@H](N)Cc1c[nH]cn1)[C@@H](C)O)C(C)C)C(C)C)C(=O)N[C@@H](C)C(=O)N[C@@H](CC(N)=O)C(=O)N[C@H](C(N)=O)[C@@H](C)O [Peptide 298] (H-H[Aib]HGS[αMeF]TSDVSR[αMeF]LDSRAAK([AEEA-AEEA-γGlu-γGlu-C20 diacid])D[αMeF]VQ[Aib]IANT-NH2) | 0.573 | 0.0755 | 15.0 |
| CC[C@H](C)[C@H](NC(=O)C(C)(C)NC(=O)[C@H](CCC(N)=O)NC(=O)[C@@H](NC(=O)[C@](C)(Cc1ccccc1)NC(=O)[C@H](CC(=O)O)NC(=O)[C@H](CCCCNC(=O)COCCOCCNC(=O)COCCOCCNC(=O)CC[C@H](NC(=O)CC[C@H](NC(=O)CCCCCCCCCCCCCCCCCCC(=O)O)C(=O)O)C(=O)O)NC(=O)[C@H](C)NC(=O)[C@H](C)NC(=O)[C@H](CCCNC(=N)N)NC(=O)[C@H](CO)NC(=O)[C@H](CC(=O)O)NC(=O)[C@H](CC(C)C)NC(=O)[C@](C)(Cc1ccccc1)NC(=O)[C@H](CCCCN)NC(=O)[C@H](CO)NC(=O)[C@@H](NC(=O)[C@H](CC(=O)O)NC(=O)[C@H](CO)NC(=O)[C@@H](NC(=O)[C@](C)(Cc1ccccc1)NC(=O)[C@H](CO)NC(=O)CNC(=O)[C@H](Cc1c[nH]cn1)NC(=O)C(C)(C)NC(=O)[C@@H](N)Cc1c[nH]cn1)[C@@H](C)O)C(C)C)C(C)C)C(=O)N[C@@H](C)C(=O)N[C@@H](CCC(=O)O)C(=O)N[C@H](C(N)=O)[C@@H](C)O [Peptide 299] (H-H[Aib]HGS[αMeF]TSDVSK[αMeF]LDSRAAK([AEEA-AEEA-γGlu-γGlu-C20 diacid])D[αMeF]VQ[Aib]IAET-NH2) | 0.193 | 0.0758 |  |
| CC[C@H](C)[C@H](NC(=O)C(C)(C)NC(=O)[C@H](CCC(N)=O)NC(=O)[C@@H](NC(=O)[C@](C)(Cc1ccccc1)NC(=O)[C@H](CC(=O)O)NC(=O)[C@H](CCCCNC(=O)COCCOCCNC(=O)COCCOCCNC(=O)CC[C@H](NC(=O)CCCCCCCCCCCCCCCCC(=O)O)C(=O)O)NC(=O)[C@H](C)NC(=O)[C@H](C)NC(=O)[C@H](CCCNC(=N)N)NC(=O)[C@H](CO)NC(=O)[C@H](CC(=O)O)NC(=O)[C@H](CC(C)C)NC(=O)[C@](C)(Cc1ccccc1)NC(=O)[C@H](CCCCN)NC(=O)[C@H](CO)NC(=O)[C@@H](NC(=O)[C@H](CC(=O)O)NC(=O)[C@H](CO)NC(=O)[C@@H](NC(=O)[C@](C)(Cc1ccccc1)NC(=O)[C@H](CO)NC(=O)CNC(=O)[C@H](Cc1c[nH]cn1)NC(=O)C(C)(C)NC(=O)[C@@H](N)Cc1c[nH]cn1)[C@@H](C)O)C(C)C)C(C)C)C(=O)N[C@@H](C)C(=O)N[C@@H](CC(N)=O)C(=O)N[C@H](C(=O)O)[C@@H](C)O [Peptide 303] (H-H[Aib]HGS[αMeF]TSDVSK[αMeF]LDSRAAK([AEEA-AEEA-γGlu-C18 diacid])D[αMeF]VQ[Aib]IANT-OH) | 0.0996 | 0.0991 | 2.0 |
| CC[C@H](C)[C@H](NC(=O)C(C)(C)NC(=O)[C@H](CCC(N)=O)NC(=O)[C@@H](NC(=O)[C@](C)(Cc1ccccc1)NC(=O)[C@H](CC(=O)O)NC(=O)[C@H](CCCCNC(=O)COCCOCCNC(=O)COCCOCCNC(=O)CC[C@H](NC(=O)CC[C@H](NC(=O)CCCCCCCCCCCCCCCCCCC(=O)O)C(=O)O)C(=O)O)NC(=O)[C@H](C)NC(=O)[C@H](C)NC(=O)[C@H](CCCNC(=N)N)NC(=O)[C@H](CO)NC(=O)[C@H](CC(=O)O)NC(=O)[C@H](CC(C)C)NC(=O)[C@](C)(Cc1ccccc1)NC(=O)[C@H](CCCCN)NC(=O)[C@H](CO)NC(=O)[C@@H](NC(=O)[C@H](CC(=O)O)NC(=O)[C@H](CO)NC(=O)[C@@H](NC(=O)[C@](C)(Cc1ccccc1)NC(=O)[C@H](CO)NC(=O)CNC(=O)[C@H](Cc1c[nH]cn1)NC(=O)C(C)(C)NC(=O)[C@@H](N)Cc1c[nH]cn1)[C@@H](C)O)C(C)C)C(C)C)C(=O)N[C@@H](C)C(=O)N[C@@H](CC(N)=O)C(=O)N[C@H](C(=O)O)[C@@H](C)O [Peptide 304] (H-H[Aib]HGS[αMeF]TSDVSK[αMeF]LDSRAAK([AEEA-AEEA-γGlu-γGlu-C20 diacid])D[αMeF]VQ[Aib]IANT-OH) | 0.687 | 0.239 | 5.7 |
| CC[C@H](C)[C@H](NC(=O)[C@H](Cc1c[nH]c2ccccc12)NC(=O)[C@H](CCC(N)=O)NC(=O)[C@@H](NC(=O)[C@H](Cc1ccccc1)NC(=O)[C@H](CC(=O)O)NC(=O)[C@H](CCCCNC(=O)COCCOCCNC(=O)COCCOCCNC(=O)CC[C@H](NC(=O)CC[C@H](NC(=O)CCCCCCCCCCCCCCCCCCC(=O)O)C(=O)O)C(=O)O)NC(=O)[C@H](C)NC(=O)[C@H](C)NC(=O)[C@H](CCCNC(=N)N)NC(=O)[C@H](CO)NC(=O)[C@H](CC(=O)O)NC(=O)[C@H](CC(C)C)NC(=O)[C@](C)(Cc1ccccc1)NC(=O)[C@H](CCCCN)NC(=O)[C@H](CO)NC(=O)[C@@H](NC(=O)[C@H](CC(=O)O)NC(=O)[C@H](CO)NC(=O)[C@@H](NC(=O)[C@H](Cc1ccccc1)NC(=O)[C@@H](NC(=O)CNC(=O)[C@H](Cc1c[nH]cn1)NC(=O)C(C)(C)NC(=O)[C@@H](N)Cc1c[nH]cn1)[C@@H](C)O)[C@@H](C)O)C(C)C)C(C)C)C(=O)N[C@@H](C)C(=O)N[C@@H](CC(N)=O)C(=O)N[C@H](C(N)=O)[C@@H](C)O [Peptide 305] | 0.155 | 0.211 | 1.5 |
| CC[C@H](C)[C@H](NC(=O)[C@H](Cc1c[nH]c2ccccc12)NC(=O)[C@H](CCC(=O)O)NC(=O)[C@@H](NC(=O)[C@H](Cc1ccccc1)NC(=O)[C@H](CC(=O)O)NC(=O)[C@H](CCCCNC(=O)COCCOCCNC(=O)COCCOCCNC(=O)CC[C@H](NC(=O)CCCCCCCCCCCCCCCCC(=O)O)C(=O)O)NC(=O)[C@H](C)NC(=O)[C@H](C)NC(=O)[C@H](CCCNC(=N)N)NC(=O)[C@H](CO)NC(=O)[C@H](CC(=O)O)NC(=O)[C@H](CC(C)C)NC(=O)[C@](C)(Cc1ccccc1)NC(=O)[C@H](CCCCN)NC(=O)[C@H](CO)NC(=O)[C@@H](NC(=O)[C@H](CC(=O)O)NC(=O)[C@H](CO)NC(=O)[C@@H](NC(=O)[C@H](Cc1ccccc1)NC(=O)[C@@H](NC(=O)CNC(=O)[C@H](CCC(N)=O)NC(=O)C(C)(C)NC(=O)[C@@H](N)Cc1c[nH]cn1)[C@@H](C)O)[C@@H](C)O)C(C)C)C(C)C)C(=O)N[C@@H](C)C(=O)N[C@@H](CC(N)=O)C(=O)N[C@H](C(N)=O)[C@@H](C)O [Peptide 306] | 0.775 | 0.0472 | 32.5 |
| CC[C@H](C)[C@H](NC(=O)[C@H](Cc1c[nH]c2ccccc12)NC(=O)[C@H](CCCNC(=N)N)NC(=O)[C@@H](NC(=O)[C@H](Cc1ccccc1)NC(=O)[C@H](CC(=O)O)NC(=O)[C@H](CCCCNC(=O)COCCOCCNC(=O)COCCOCCNC(=O)CC[C@H](NC(=O)CCCCCCCCCCCCCCCCC(=O)O)C(=O)O)NC(=O)[C@H](C)NC(=O)[C@H](C)NC(=O)[C@H](CCCNC(=N)N)NC(=O)[C@H](CO)NC(=O)[C@H](CC(=O)O)NC(=O)[C@H](CC(C)C)NC(=O)[C@](C)(Cc1ccccc1)NC(=O)[C@H](CCCCN)NC(=O)[C@H](CO)NC(=O)[C@@H](NC(=O)[C@H](CC(=O)O)NC(=O)[C@H](CO)NC(=O)[C@@H](NC(=O)[C@H](Cc1ccccc1)NC(=O)[C@@H](NC(=O)CNC(=O)[C@H](CCC(N)=O)NC(=O)C(C)(C)NC(=O)[C@@H](N)Cc1c[nH]cn1)[C@@H](C)O)[C@@H](C)O)C(C)C)C(C)C)C(=O)N[C@@H](C)C(=O)N[C@@H](CC(N)=O)C(=O)N[C@H](C(N)=O)[C@@H](C)O [Peptide 307] | 1.13 | 0.0222 | 100.5 |
